From ChEMBL document CHEMBL5380773, “Novel Feleucin-K3-Derived Peptides Modified with Sulfono-γ-AA Building Blocks Targeting Pseudomonas aeruginosa and Methicillin-Resistant Staphylococcus aureus Infections” (J Med Chem, 2023)
Calls of active or inactive are those of the source. The calls are words filed in the database; no cut-off is given here. Numbered stars: 1 amine (or outer) side, 2 acyl side, 3 side chain; on linkers, the order of the positions; unused ones are H or OH. Square brackets hold non-standard residues; d marks the D form. Peptide text beside a SMILES is read from it. * marks the point of attachment. X2 = CC(C)C[C@H](N)CN(CC(=O)[*:2])[*:1]; X1 = O=S(=O)(c1ccc(I)cc1)*

Experiments:
Erythrocyte = test: Hemolytic activity against mouse red blood cells incubated for 1 hr; format: toxicity, cell-based
Pseudomonas aeruginosa [1] = test: Antibiofilm activity against Pseudomonas aeruginosa ATCC 27853 at 4 to 8 ug/ml incubated for 24 hrs by crystal violet staining based microplate reader analysis; format: functional, organism-based; settings: dose 4-8 µg/ml
Staphylococcus aureus [2] = test: Antibiofilm activity against Staphylococcus aureus ATCC 25923 at 4 to 8 ug/ml incubated for 24 hrs by crystal violet staining based microplate reader analysis; format: functional, organism-based; settings: dose 4-8 µg/ml
Staphylococcus aureus [3] = test: Antibiofilm activity against methicillin resistant staphylococcus aureus ATCC 33591 at 4 to 8 ug/ml incubated for 24 hrs by crystal violet staining based microplate reader analysis; format: functional, organism-based; settings: dose 4-8 µg/ml
[4] = test system: Staphylococcus epidermidis; test: Antibiofilm activity against Staphylococcus epidermidis ATCC 12228 at 4 to 8 ug/ml incubated for 24 hrs by crystal violet staining based microplate reader analysis; format: functional, organism-based; settings: dose 4-8 µg/ml
[5] = test system: Staphylococcus epidermidis; test: Antibiofilm activity against Staphylococcus epidermidis ATCC 12228 at 2 to 4 ug/ml incubated for 24 hrs by crystal violet staining based microplate reader analysis; format: functional; settings: dose 2-4 µg/ml, at 2 to 4 µg/mL
[6] = test system: Staphylococcus epidermidis; test: Bactericidal activity against Staphylococcus epidermidis ATCC 12228 at 4 times MIC after 0.5 hrs; format: functional, organism-based
Staphylococcus aureus [7] = test: Bactericidal activity against methicillin resistant Staphylococcus aureus ATCC 33591 at 4 times MIC after 2 to 4 hrs; format: functional, organism-based; settings: time 2-4 hrs
Pseudomonas aeruginosa [8] = test: Antibiofilm activity against Pseudomonas aeruginosa ATCC 27853 assessed as reduction in biofilm numbers at 1 times MBIC90 incubated for 24 hrs by confocal laser scanning microscopy analysis; format: functional, organism-based
Pseudomonas aeruginosa [9] = test: Antibiofilm activity against Pseudomonas aeruginosa ATCC 27853 assessed as reduction in biofilm thickness at 2 times MBIC90 incubated for 24 hrs by confocal laser scanning microscopy analysis; format: functional
Staphylococcus aureus [10] = test: Antibiofilm activity against methicillin resistant Staphylococcus aureus ATCC 33591 assessed as reduction in biofilm mass; format: functional, organism-based
Pseudomonas aeruginosa [11] = test: Antibiofilm activity against Pseudomonas aeruginosa ATCC 27853 assessed as reduction in biofilm structures at MBIC90 by scanning electron microscopic analysis; format: functional, organism-based
Pseudomonas aeruginosa [12] = test: Bactericidal activity against Pseudomonas aeruginosa ATCC 27853 at 4 times MIC after 2 to 6 hrs by time kill assay; format: functional, organism-based; settings: time 2-6 hrs
Staphylococcus aureus [13] = test: Bactericidal activity against methicillin resistant Staphylococcus aureus ATCC 33591 at 4 times MIC after 1 to 2.5 hrs by time kill assay; format: functional, organism-based; settings: time 1-2.5 hrs
Staphylococcus aureus [14] = test: Induction of resistant development in Staphylococcus aureus ATCC 25923 assessed as fold increase by serial passage assay; format: functional
Staphylococcus aureus [15] = test: Induction of resistant development in methicillin resistant Staphylococcus aureus ATCC 33591 assessed as fold increase by serial passage assay; format: functional
Staphylococcus aureus [16] = test: Antimicrobial activity against Staphylococcus aureus in presence of LPS/LTA; format: functional
Cell membrane [17] = test: Induction of cytoplasmic membrane depolarization in Pseudomonas aeruginosa ATCC 27853 by DiSC35 dye based fluorescence method
Cell membrane [18] = test: Induction of membrane disruption in Pseudomonas aeruginosa ATCC 27853 assessed as membrane blebbing at low concentration incubated for 24 hrs by SEM analysis; format: subcellular
Cell membrane [19] = test: Induction of membrane disruption in Pseudomonas aeruginosa ATCC 27853 assessed as irregular atrophy at low concentration incubated for 24 hrs by SEM analysis; format: subcellular
Cell membrane [20] = test: Induction of membrane disruption in methicillin resistant Staphylococcus aureus ATCC 33591 assessed as irregular atrophy at low concentration incubated for 24 hrs by SEM analysis; format: subcellular
Cell membrane [21] = test: Induction of membrane disruption in Pseudomonas aeruginosa ATCC 27853 assessed as membrane collapse at 2 to 4 times MIC incubated for 24 hrs by TEM analysis; format: subcellular
Cell membrane [22] = test: Induction of membrane disruption in Pseudomonas aeruginosa ATCC 27853 assessed as separation of cytoplasmic membrane at 2 to 4 times MIC incubated for 24 hrs by TEM analysis; format: subcellular
Cell membrane [23] = test: Induction of membrane disruption in methicillin resistant Staphylococcus aureus ATCC 33591 assessed as membrane collapse at 2 to 4 times MIC incubated for 2 to 4 hrs by TEM analysis; format: subcellular; settings: time 2-4 hrs
Cell membrane [24] = test: Induction of membrane disruption in methicillin resistant Staphylococcus aureus ATCC 33591 assessed as separation of cytoplasmic membrane at 2 to 4 times MIC incubated for 2 to 4 hrs by TEM analysis; format: subcellular; settings: time 2-4 hrs
Cell membrane [25] = test: Induction of membrane disruption in methicillin resistant Staphylococcus aureus ATCC 33591 assessed as separation […] at 2 to 4 times MIC incubated for 2 to 4 hrs by TEM analysis; format: subcellular; settings: time 2-4 hrs
Cell membrane [26] = test: Induction of membrane disruption in methicillin resistant Staphylococcus aureus ATCC 33591 assessed as cytoplasmic leakage at 2 to 4 times MIC incubated for 2 to 4 hrs by TEM analysis; format: subcellular; settings: time 2-4 hrs
Pseudomonas aeruginosa [27] = test: Induction of DNA leakage in Pseudomonas aeruginosa ATCC 27853; format: functional, organism-based; settings: TDE = time-dependent effect
Pseudomonas aeruginosa [28] = test: Induction of protein leakage in Pseudomonas aeruginosa ATCC 27853; format: functional, organism-based; settings: TDE = time-dependent effect
DNA [29] = test: Binding affinity to Staphylococcus aureus DNA at 8 times MIC incubated for 30 mins; format: nucleic-acid assay
DNA [30] = test: Binding affinity to methicillin resistant Staphylococcus aureus DNA at 8 times MIC incubated for 30 mins; format: nucleic-acid assay
Pseudomonas aeruginosa [31] = test: Antimicrobial activity against Pseudomonas aeruginosa ATCC 27853 infected in C57BL/6J mouse assessed as reduction in IL-6 at 2.5 mg/kg, ip measured after 72 hrs […]; format: functional, organism-based
Pseudomonas aeruginosa [32] = test: Antimicrobial activity against Pseudomonas aeruginosa ATCC 27853 infected in C57BL/6J mouse assessed as reduction in TNF-alpha at 2.5 mg/kg, ip measured after 72 hrs […]; format: functional, organism-based
Staphylococcus aureus [33] = test: Antimicrobial activity against methicillin resistant Staphylococcus aureus ATCC 33591 infected in skin wound mouse model assessed as reduction in inflammatory infiltration at […] by H and E staining based assay; format: functional, organism-based; settings: dose lower 10.0 mg/kg
Staphylococcus aureus [34] = test: Antimicrobial activity against methicillin resistant Staphylococcus aureus ATCC 33591 infected in skin wound mouse model assessed as reduction in skin wound bacterial load at 0.25 to 4 mg/kg measured on day 3 and 7 […]; format: functional, organism-based; settings: dose 0.25-4 mg/kg, time 3-7 day
Staphylococcus aureus [35] = test: Antimicrobial activity against methicillin resistant Staphylococcus aureus ATCC 33591 infected in skin wound mouse model assessed as reduction in number of inflammatory cells at 1 to 4 mg/kg measured on day 3 and 7 by H and E staining based assay; format: functional, organism-based; settings: dose 1-4 mg/kg, time 3-7 day
Staphylococcus aureus [36] = test: (§1) Antimicrobial activity against methicillin resistant Staphylococcus aureus ATCC 33591 infected in BALB/c mouse assessed as biofilm eradication at 0.25 to 1 mg/kg infected with bacteria for 2 hrs prior to compound addition on 1, 24 and 48 hrs and measured after 72 hrs by H and E staining based assay; format: functional, organism-based; settings: dose 0.25-1 mg/kg
Staphylococcus aureus [37] = test: as §1, with “reduction in inflammatory cell infiltration” for “biofilm eradication”; format: functional, organism-based; settings: dose 0.25-1 mg/kg

Question: With `CC(C)C[C@H](N)CN(CC(=O)N[C@@H](CCCCN)C(=O)N[C@@H](CC(C)C)C(=O)N[C@@H](CC(C)C)C(=O)N[C@@H](CCCCN)C(=O)N[C@@H](CCCCN)C(=O)N[C@@H](CC(C)C)C(=O)N[C@@H](CC(C)C)C(N)=O)S(=O)(=O)c1ccc(I)cc1` (X1-[X2]KLLKKLL-NH2) as the compound, how does the MHC (Erythrocyte) read?
Answer: The MHC was 256 µg/mL.

Question: What about the Activity (Pseudomonas aeruginosa [1]) of the same compound?
Answer: Its Activity is “Active”.

Question: And the Activity (Staphylococcus aureus [2])?
Answer: Its Activity is “Active”.

Question: And the Activity (Staphylococcus aureus [3])?
Answer: Its Activity is “Active”.

Question: What about the Activity [4] of the same compound?
Answer: The Activity was “Active”.

Question: And the Activity [5]?
Answer: Its Activity is 50%.

Question: And the Activity [6]?
Answer: The Activity was “Active”.

Question: What about the Activity (Staphylococcus aureus [7]) of the same compound?
Answer: Its Activity is “Active”.

Question: And the Activity (Pseudomonas aeruginosa [8])?
Answer: The Activity was “Active”.

Question: And the Activity (Pseudomonas aeruginosa [9])?
Answer: Its Activity is 60 um.

Question: What about the Activity (Staphylococcus aureus [10]) of the same compound?
Answer: The Activity was “Active”.

Question: And the Activity (Pseudomonas aeruginosa [11])?
Answer: The Activity was “Active”.

Question: And the Activity (Pseudomonas aeruginosa [12])?
Answer: Its Activity is “Active”.

Question: What about the Activity (Staphylococcus aureus [13]) of the same compound?
Answer: The Activity was “Active”.

Question: And the “fold change (FC)” value (Staphylococcus aureus [14])?
Answer: Its value is 2.

Question: What about the “fold change (FC)” value (Staphylococcus aureus [15]) of the same compound?
Answer: The value was 2.

Question: And the MIC (Staphylococcus aureus [16])?
Answer: The MIC was no less than 16 µg/mL.

Question: And the Activity (Cell membrane [17])?
Answer: Its Activity is “Active”.

Question: And the Activity (Cell membrane [18])?
Answer: Its Activity is “Active”.

Question: What about the Activity (Cell membrane [19]) of the same compound?
Answer: The Activity was “Active”.

Question: And the Activity (Cell membrane [20])?
Answer: Its Activity is “Active”.

Question: What about the Activity (Cell membrane [21]) of the same compound?
Answer: Its Activity is “Active”.

Question: And the Activity (Cell membrane [22])?
Answer: The Activity was “Active”.

Question: And the Activity (Cell membrane [23])?
Answer: Its Activity is “Active”.

Question: And the Activity (Cell membrane [24])?
Answer: Its Activity is “Active”.

Question: What about the Activity (Cell membrane [25]) of the same compound?
Answer: Its Activity is “Active”.

Question: What about the Activity (Cell membrane [26]) of the same compound?
Answer: The Activity was “Active”.

Question: What about the Activity (Pseudomonas aeruginosa [27]) of the same compound?
Answer: The Activity was “Tde”.

Question: What about the Activity (Pseudomonas aeruginosa [28]) of the same compound?
Answer: The Activity was “Tde”.

Question: And the Activity (DNA [29])?
Answer: Its Activity is “Active”.

Question: And the Activity (DNA [30])?
Answer: Its Activity is “Active”.

Question: And the Activity (Pseudomonas aeruginosa [31])?
Answer: The Activity was “Active”.

Question: And the Activity (Pseudomonas aeruginosa [32])?
Answer: The Activity was “Active”.

Question: What about the Activity (Staphylococcus aureus [33]) of the same compound?
Answer: Its Activity is “Active”.

Question: What about the Activity (Staphylococcus aureus [34]) of the same compound?
Answer: Its Activity is “Active”.

Question: And the Activity (Staphylococcus aureus [35])?
Answer: Its Activity is “Active”.

Question: And the Activity (Staphylococcus aureus [36])?
Answer: The Activity was “Active”.

Question: And the Activity (Staphylococcus aureus [37])?
Answer: Its Activity is “Active”.
